The results in this text go back to PMC3103600 (Journal of natural products, 2011).

Read-outs that look alike come from different tables or passages of the source.

The test system of assay [1] is Her2, Akt, Raf-1, Hsp70, Hsp90 in MCF7 cells. Briefly: Western blot of Hsp90 client proteins and heat shock proteins, MCF7. It is filed as cell-based. Particulars: MCF7, 36 h. A general note: In western blotting, separated proteins are transferred to a membrane and probed.
Assay [2] relates to Her2, Akt, Raf-1, Hsp70, Hsp90 in Sk-Br3 cells. Briefly: Western blot of Hsp90 client proteins and heat shock proteins, SkBr3. It is filed as cell-based. The note with it: Sk-Br3, 36 h.
Assay [3] relates to Hsp90, Hsp70 and Cdc37 with HRI/K199R. The format is biochemical. Particulars: low ionic strength wash.
The next assay has as its target native luciferase (Photinus pyralis, UniProt P08659). The assay can be described thus: Counter-screen against native luciferase. The format is biochemical, firefly. (In general: The purpose of a counterscreen is to sort out artefacts and off-target activity.)
For assay [4], the target named is Hsp90NT (N-terminal domain of Hsp90α, amino acids 1–241) (Homo sapiens, UniProt P07900). The assay can be described thus: SPR binding to N-terminal domain of Hsp90. For orientation: In SPR one partner is held on a chip, and binding of the other changes the refractive index at the surface.
Assay [5] deals with Hsp90CT (C-terminal domain of Hsp90, amino acids 531–732) (Homo sapiens, UniProt P07900). Briefly: SPR binding to C-terminal domain of Hsp90.
Assay [6] concerns the target full length Hsp90 (human Hsp90β) (Homo sapiens, UniProt P08238). Briefly: SPR binding to full length Hsp90. The note with it: full length Hsp90, 25 °C.
For assay [7], the system named is heme-regulated eIF2α kinase (HRI). The assay can be described thus: Hsp90-dependent HRI maturation/activation in heme-deficient reticulocyte lysate. The note with it: 45 min.
Assay [8] shares this test system. The assay can be described thus: Stability of [35S]HRI in reticulocyte lysate. It is filed as biochemical. Particulars: 45 min, heme-deficient lysate.

native luciferase, sequence (P08659 whole entry, the tested form may be a part): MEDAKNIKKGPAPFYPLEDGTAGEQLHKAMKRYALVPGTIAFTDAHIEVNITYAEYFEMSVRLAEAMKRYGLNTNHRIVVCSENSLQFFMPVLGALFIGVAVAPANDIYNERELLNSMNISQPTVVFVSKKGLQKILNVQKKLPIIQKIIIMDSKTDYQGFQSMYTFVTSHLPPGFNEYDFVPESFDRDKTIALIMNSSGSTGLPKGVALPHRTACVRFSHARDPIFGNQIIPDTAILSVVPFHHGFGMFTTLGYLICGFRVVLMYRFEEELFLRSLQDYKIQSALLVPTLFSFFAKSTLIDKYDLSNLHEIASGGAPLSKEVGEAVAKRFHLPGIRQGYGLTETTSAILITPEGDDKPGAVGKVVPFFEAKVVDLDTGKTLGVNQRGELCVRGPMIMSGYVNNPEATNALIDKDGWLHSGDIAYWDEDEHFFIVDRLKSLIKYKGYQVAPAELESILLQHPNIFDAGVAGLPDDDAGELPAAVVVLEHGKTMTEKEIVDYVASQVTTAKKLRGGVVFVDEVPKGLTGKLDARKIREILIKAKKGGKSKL
full length Hsp90 (human Hsp90β), sequence (P08238 whole entry): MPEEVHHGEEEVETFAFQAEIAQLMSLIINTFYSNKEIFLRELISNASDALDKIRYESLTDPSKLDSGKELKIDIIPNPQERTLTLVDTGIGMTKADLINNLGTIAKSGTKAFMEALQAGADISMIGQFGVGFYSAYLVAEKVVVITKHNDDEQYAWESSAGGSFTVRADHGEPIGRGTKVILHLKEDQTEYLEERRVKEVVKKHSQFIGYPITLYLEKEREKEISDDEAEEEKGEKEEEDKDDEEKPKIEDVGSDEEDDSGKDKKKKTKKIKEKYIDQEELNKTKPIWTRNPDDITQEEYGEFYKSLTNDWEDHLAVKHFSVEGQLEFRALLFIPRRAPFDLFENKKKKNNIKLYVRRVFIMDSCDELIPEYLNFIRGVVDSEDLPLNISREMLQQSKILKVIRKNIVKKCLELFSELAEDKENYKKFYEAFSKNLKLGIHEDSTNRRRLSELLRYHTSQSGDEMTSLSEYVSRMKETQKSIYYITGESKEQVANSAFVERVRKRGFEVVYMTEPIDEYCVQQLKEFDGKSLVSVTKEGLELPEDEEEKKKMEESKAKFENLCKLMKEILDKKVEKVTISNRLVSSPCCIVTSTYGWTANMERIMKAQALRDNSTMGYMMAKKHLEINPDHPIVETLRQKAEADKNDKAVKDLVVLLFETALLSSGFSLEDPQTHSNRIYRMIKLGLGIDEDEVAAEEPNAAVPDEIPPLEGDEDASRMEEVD

For the compound `CC(C)=CCC[C@]1(C)C=Cc2c(O)c3c(c(CC=C(C)C)c2O1)O[C@]12C(=C[C@@H]4C[C@H]1C(C)(C)O[C@@]2(C/C=C(/C)C(=O)O)C4=O)C3=O` [Compound 1, (−)-gambogic acid], the “depletion of Hsp90-dependent proteins Her2, Akt, Raf-1” value in assay [1] was “deplete MCF7 and Sk-Br3 cells of Her2, Akt and Raf-1 in a concentration dependent fashion”; in assay [2], “deplete MCF7 and Sk-Br3 cells of Her2, Akt and Raf-1 in a concentration dependent fashion”. Besides, the “induction of Hsp90 and Hsp70 expression” value in assay [1] was “induced Hsp90 and Hsp70 expression”; in [2], “induced Hsp90 and Hsp70 expression”. In [3] (50 µM), the “effect on binding of Hsp90, Hsp70, Cdc37 to HRI/K199R” value (from here on “effect on binding of Hsp90, Hsp70”) is “disrupted the binding of Hsp90, Hsp70, and Cdc37 to HRI”. At native luciferase, the “direct effect on the activity of native luciferase” value was “Neither celastrol nor 1 had any direct effect”. The kd in [4] (25 °C) is listed as 0.01122(7) S^−1; in assay [4] (+20 µM GA in analyte buffer) it was 0.0114(7) S^−1; in assay [5], “no binding”; in [6], 0.0113(4) S^−1. In addition, the KD entry in [5] is “no binding”. In assay [5], the ka entry is “no binding”. Besides, the “effect on HRI maturation/activation” value in [7] (50 µM) is recorded as “inhibited the maturation/ activation of HRI”.
With `COC1=C2C[C@@H](C)C[C@H](OC)[C@H](O)[C@@H](C)/C=C(\C)[C@H](OC(N)=O)[C@@H](OC)/C=C\C=C(/C)C(=O)NC(=CC1=O)C2=O` [Compound 3, geldanamycin], the “loss of [35S]HRI compared to the DMSO control” value in assay [8] (80 µM) is 0%. The “effect on HRI maturation/activation” value in [7] (80 µM) is “inhibited the maturation/ activation of HRI”.
With `[Na+].[Na+].[O]=[Mo](=[O])([O-])[O-]` [molybdate, sodium molybdate], in assay [3] (20 mM), the “effect on binding of Hsp90, Hsp70” value was “stabilized the binding of Hsp90 and Cdc37 to HRI/K199R, while not affecting the interaction of Hsp70 with HRI/K199R”. For the same compound, the “loss of [35S]HRI compared to the DMSO control” value in assay [8] (20 mM) is 10%. Besides, the “effect on HRI maturation/activation” value in [7] (20 mM) is recorded as “inhibited the maturation/ activation of HRI”.
As to `CC1=C(O)C(=O)C=C2C1=CC=C1[C@@]2(C)CC[C@@]2(C)[C@@H]3C[C@](C)(C(=O)O)CC[C@]3(C)CC[C@]12C` [Compound 2, celastrol], in assay [3] (100 µM), the “effect on binding of Hsp90, Hsp70” value is “disrupted the binding of Hsp90, Hsp70, and Cdc37 to HRI”. Also, on native luciferase, the “direct effect on the activity of native luciferase” value was “Neither celastrol nor 1 had any direct effect”. In addition, the “effect on HRI maturation/activation” value in assay [7] (100 µM) is recorded as “inhibited the maturation/ activation of HRI”.
Turning to `CO[C@H]1[C@H](OC(=O)c2ccc(C)[nH]2)[C@H](O)[C@@H](Oc2ccc3c(O)c(NC(=O)c4c[nH]c(C(=O)Nc5c(O)c6ccc(O[C@H]7OC(C)(C)[C@@H](OC)[C@H](OC(=O)c8ccc(C)[nH]8)[C@@H]7O)c(C)c6oc5=O)c4C)c(=O)oc3c2C)OC1(C)C` [Compound 5, coumermycin A1], the “effect on binding of Hsp90, Hsp70” value in assay [3] (400 µM) was “disrupted the interaction of Hsp90, Hsp70 and Cdc37 with HRI/K199R”. In addition, the “effect on HRI maturation/activation” value in assay [7] (400 µM) was “also inhibited the maturation/ activation of HRI”.
As to `CO[C@@H]1[C@@H](OC(N)=O)[C@@H](O)[C@H](Oc2ccc3c(O)c(NC(=O)c4ccc(O)c(CC=C(C)C)c4)c(=O)oc3c2C)OC1(C)C` [Compound 4, novobiocin], the “effect on binding of Hsp90, Hsp70” value in assay [3] (4.0 mM) was “disrupted the interaction of Hsp90, Hsp70 and Cdc37 with HRI/K199R”. Moreover, the “effect on HRI maturation/activation” value in assay [7] (4.0 mM) is given as “also inhibited the maturation/ activation of HRI”.
